Measured values as given in patent US4103028A, “Complement inhibitors” (American Cyanamid Company, priority 1977, dated 1978).
Where a name gives a salt, the structure may show the parent alone.

Legend:
shunt pathway = assay: Test, Code 036 (C-Shunt inhibitor), lysis of fragile human erythrocytes in autologous serum, cobra venom factor; format: biochemical; details: In vitro; well number of a two-fold serial dilution assay, higher well number indicates higher activity; NEG = negative
Description: (§1) This test measures the ability of activated […] in the presence of C4 and appropriate dilutions of the test compound. An active inhibitor protects C2 from C1 and C4; (ii) Test, Code 035 (C3-C9 inhibitor) -- This test determines the ability of the late components of human complement (C3-C9) to lyse EAC 142 in the presence of appropriate dilutions of the test compound. An active inhibitor protects EAC 142 from lysis by human C3-C9; (iii) Test, Code 036 (C-Shunt inhibitor) -- In this test human erythrocytes rendered fragile are lysed in autologous serum via the shunt pathway activated by cobra venom factor in the presence of appropriate dilutions of the test compound. Inhibition of the shunt pathway results in failure of lysis; (iv) Forssman Vasculitis Test -- Here, the well known complement dependent lesion, Forssman vascultitis, is produced in guinea pigs by intradermal injection of rabbit anti-Forssman antiserum. The lesion is measured in terms of diameter, edema and hemorrhage and the extent to which a combined index of these is inhibited by prior intraperitoneal injection of the test compound at 200 mg/kg is then reported, unless otherwise stated; (v) Forssman Shock Test -- Lethal shock is produced in guinea pigs by an i.v. injection of anti-Forssman antiserum and the harmonic mean death time of treated guinea pigs is compared with that of simultaneous controls; (vi) Complement Level Reduction Test -- In this test, the above dosed quinea pigs, or others, are bled for serum and the complement level is determined in undiluted serum by the capillary tube method of U.S. Pat. No. 3,876,376 and compared to undosed control guinea pigs; and (vii) Cap 50 Test -- Here, appropriate amounts of the test compound are added to a pool of guinea pig serum in vitro, after which the undiluted serum capillary tube assay referred to above is run. The concentration of compound inhibiting 50% is reported.

C1 = target: T1, C1 (Homo sapiens, UniProt P09871); assay: Test, Code 026 (C1 inhibitor), serial dilution assay; format: biochemical; details: In vitro; well number of a two-fold serial dilution assay, higher well number indicates higher activity; NEG = negative
T1 sequence (P09871 16-437 limits assumed): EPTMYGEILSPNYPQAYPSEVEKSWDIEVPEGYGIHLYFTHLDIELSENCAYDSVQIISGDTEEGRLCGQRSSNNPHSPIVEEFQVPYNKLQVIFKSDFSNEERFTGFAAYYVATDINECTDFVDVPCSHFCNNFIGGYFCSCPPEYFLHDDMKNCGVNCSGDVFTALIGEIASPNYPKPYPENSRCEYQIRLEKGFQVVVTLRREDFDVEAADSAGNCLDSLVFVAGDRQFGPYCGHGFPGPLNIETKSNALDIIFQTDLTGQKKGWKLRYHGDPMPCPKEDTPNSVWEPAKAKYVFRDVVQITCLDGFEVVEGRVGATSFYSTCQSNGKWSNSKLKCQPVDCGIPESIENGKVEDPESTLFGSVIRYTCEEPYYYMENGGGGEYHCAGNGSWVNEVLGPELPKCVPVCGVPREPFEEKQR
T1 sequence (P09871 438-688 limits assumed): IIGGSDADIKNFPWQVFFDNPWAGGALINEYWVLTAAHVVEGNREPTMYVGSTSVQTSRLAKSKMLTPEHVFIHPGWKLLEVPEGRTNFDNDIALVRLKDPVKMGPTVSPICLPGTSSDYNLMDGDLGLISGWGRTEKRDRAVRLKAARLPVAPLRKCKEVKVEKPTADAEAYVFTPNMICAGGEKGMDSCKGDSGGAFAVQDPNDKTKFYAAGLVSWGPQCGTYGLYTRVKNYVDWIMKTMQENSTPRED
Description: as §1

[1] = tested on: late components of human complement (C3-C9); assay: Test, Code 035 (C3-C9 inhibitor), lysis of EAC 142; format: biochemical; details: In vitro; well number of a two-fold serial dilution assay, higher well number indicates higher activity; NEG = negative
Description: as §1

[2] = tested on: Forssman vasculitis in guinea pigs; assay: Forssman Vasculitis Test; set-up: species or system guinea pig; details: In vivo, inhibition of combined index of lesion diameter, edema and hemorrhage, prior intraperitoneal injection at 200 mg/kg unless otherwise stated
Description: as §1

[3] = tested on: complement level in undiluted serum; assay: Complement Level Reduction Test; set-up: species or system guinea pig; details: In vivo, dosed guinea pigs bled for serum; capillary tube method, compared to undosed control guinea pigs
Description: as §1

SMILES	036 (activity in wells) (shunt pathway)	026 (activity in wells) (C1)	035 (activity in wells) [1]	Forssman [2]	% Reduction Complement [3]
O=C(Nc1cccc(C(=O)Nc2cc3c(O)cc(S(=O)(=O)O)cc3cc2S(=O)(=O)O)c1)Nc1cccc(C(=O)Nc2cc3c(O)cc(S(=O)(=O)O)cc3cc2S(=O)(=O)O)c1 [3,3'-[Ureylenebis (m-phenylenecarbonylimino)]bis[5-hydroxy-2,7-naphthalenedisulfonic acid]tetrasodium salt]	2	5	2	35	-31%
Cc1ccc(C(=O)Nc2cc(S(=O)(=O)O)cc3cc(S(=O)(=O)O)cc(O)c23)cc1N [4-(3-Amino-p-toluamido)-5-hydroxy-2,7-naphthalenedisulfonic acid, disodium salt]	NEG	5	NEG	–	–
Cc1cc(C(=O)Nc2cc(S(=O)(=O)O)cc3cc(S(=O)(=O)O)cc(O)c23)ccc1N [4-(4-Amino-m-toluamido)-5-hydroxy-2,7-naphthalenedisulfonic acid, disodium salt]	NEG	5	NEG	17	+12%
Cc1ccc(N)cc1C(=O)Nc1cc(S(=O)(=O)O)cc2cc(S(=O)(=O)O)cc(O)c12 [4-(5-Amino-o-toluamido)-5-hydroxy-2,7-naphthalenedisulfonic acid, disodium salt]	NEG	2	NEG	–	–
Cc1ccc(C(=O)Nc2cc(S(=O)(=O)O)cc3cc(S(=O)(=O)O)cc(O)c23)cc1[N+](=O)[O-] [4-Hydroxy-5-(3-nitro-p-toluamido)-2,7-naphthalenedisulfonic acid, disodium salt]	NEG	3	NEG	–	–
Cc1cc(C(=O)Nc2cc(S(=O)(=O)O)cc3cc(S(=O)(=O)O)cc(O)c23)ccc1[N+](=O)[O-] [4-Hydroxy-5-(4-nitro-3-toluamido)-2,7-naphthalenedisulfonic acid, disodium salt]	NEG	2	NEG	48	-20%
Cc1ccc([N+](=O)[O-])cc1C(=O)Nc1cc(S(=O)(=O)O)cc2cc(S(=O)(=O)O)cc(O)c12 [4-Hydroxy-5-(5-nitro-o-toluamido)-2,7-naphthalenedisulfonic acid, disodium salt]	NEG	2	NEG	10	-17%
Cc1ccc(NC(=O)Nc2cccc(C(=O)Nc3cc(S(=O)(=O)O)cc4cc(S(=O)(=O)O)cc(O)c34)c2)cc1[N+](=O)[O-] [4-Hydroxy-5-m-[3-(3-nitro-p-tolyl)ureido]benzamido-2,7-naphthalenedisulfonic acid, disodium salt]	NEG	NEG	NEG	15	+46%
O=C(Nc1cccc(C(=O)Nc2cc(S(=O)(=O)O)cc3cc(S(=O)(=O)O)cc(O)c23)c1)Nc1cccc(C(F)(F)F)c1 [4-Hydroxy-5-m-[3-(α,α,α-trifluoro-m-tolyl)ureido]benzamido-2,7-naphthalenedisulfonic acid, disodium salt]	NEG	1	NEG	5	-6%
O=C(Nc1ccc(S(=O)(=O)F)cc1)Nc1cccc(C(=O)Nc2cc(S(=O)(=O)[O-])cc3cc(S(=O)(=O)[O-])cc(O)c23)c1.[Na+].[Na+] [4-{m-{3-[p-(Fluorosulfonyl)phenyl]ureido}benzamido}-5-hydroxy-2,7-naphthalenedisulfonic acid, disodium salt]	NEG	4	NEG	–	–
O=C(Nc1cccc(C(=O)Nc2cc(S(=O)(=O)[O-])cc3cc(S(=O)(=O)[O-])cc(O)c23)c1)Nc1cccc(C(=O)Nc2cc(S(=O)(=O)[O-])cc3cc(S(=O)(=O)[O-])cc(O)c23)c1.[Na+].[Na+].[Na+].[Na+] [5,5'-[Ureylenebis(m-phenylenecarbonylimino)]bis[4-hydroxy-2,7-naphthalenedisulfonic acid] tetrasodium salt]	2	6	1	–	–
